Laboratory results as given in US20250177412A1, “SMALL-MOLECULE INHIBITORS TARGETING THE BOB1/OCT1 INTERFACE” (NANTES UNIVERSITE, priority 2022, published 2025).

Columns and labels:
[1] = system: mouse embryonic fibroblasts (MEFs); assay: MTT assay; type: cell-based; settings: data not shown
[2] = system: BOB1/OCT1-mediated transcription; assay: Luciferase reporter assay (transient transfection, 6xPORE-luc); type: cell-based, human
Method: FIGS. 1A-C are a combination of graphs showing that compound 005 inhibits BOB1/OCT1-mediated transcription in vitro. HEC293Ea1 cells, known to express endogenous OCT1, were co-transfected with […] reporter, pEV-OBF1 (BOB1) effector, and pCMV-β-gal calibrator plasmids. Luciferase and β-galactosidase activities were measured 48 hours after transfection. The 100% luciferase activity was set as activity in presence of vehicle (10 μM DMSO). […] All experiments are performed at least in triplicates. Bars indicate the mean±SEM. * P<0.05, ** P<0.01, *** P<0.001, **** P<0.0001.
The HEK293E1a cells were seeded at density 1.2×10^4 per well on 48-well plate in DMEM medium containing 10% fetal calf serum. After 24 hours cells were transfected with plasmid mix (300 ng/well) containing specified amounts of the p6×PORE-luc reporter, pEV-OBF1 and pCG-Oct1 effector, pBluescript II KS+ carrier, and pCMV-βgal (for standardization) as previously described. The transfections were carried out in three biological replicates, using Polyethylenimine (PEI 25K, Polysciences Inc.) at the ratio 2:1 to DNA. After 48 hours, cells were washed with PBS, lysed, and measured for luciferase activity, using the Bright-Glo luciferase assay system (Promega), and for β-galactosidase activity in a standard assay.
BOB1 has been described as a coactivator acting in cooperation with the POU-domain proteins OCT1 and OCT2 bound to distinct DNA-motifs either in monomeric or dimeric configurations. […] As an initial functional assay, we examined the ability of the compounds according to the present invention to affect BOB1-OCT1-PORE-mediated transcriptional activation in transient transfection luciferase assay. To this end, we made use of previously generated 6×PORE-luc and reporter plasmid, in which hexamers of the PORE were cloned upstream of the thymidine kinase (tk) minimal promoter and luciferase gene. […] Furthermore, the addition of a plasmid expressing exogenous OCT1 exerted an inhibitory effect on both basal and BOB1-mediated transcription (data not shown). This observation is likely due to the fact that HEK293 cells, like all other mammalian cell types, express OCT1, and further addition of exogenous OCT1 in these cells shifts the BOB1/OCT1 equilibrium out of optimal range, resulting in squelching effect, and in our experimental setup, in about 3-fold stimulation, as compared to that by endogenous OCT1 alone (FIG. 1A). […] Compound 005 was selected for further detailed investigation.

naïve B cells = assay: In vitro plasmablast differentiation with naive B cells; type: cell-based, human; settings: data not shown
Description: Blood samples were obtained from healthy volunteers provided by Sanquin Blood Supply Foundation (Amsterdam, the Netherlands) or from Etablissement Français du Sang (Nantes, France) after written consent was obtained. Peripheral blood mononuclear cells (PBMCs) were isolated through Ficoll-Paque gradient centrifugation on Lymphoprep (Nycomed). Total B cells were isolated from freshly purified PBMCs by negative selection (B cell Isolation Kit II; Miltenyi Biotech, 130-091-151) on magnetic columns using autoMACS Pro Separator according to the manufacturer's instructions. […] Ultimately, purity of the MACS-isolated CD19^+ B cells, CD19^+CD27^+IgD^− memory B cells and CD19^+CD27^−IgD^+ […] was assessed by flow cytometry; purity was >90% for B cells, >65% for memory B cells, and >85% for naive B cells. […]
B cells were stimulated to differentiate into plasmablasts using a two-phase cell culture protocol as previously described. […] At days 0, 4 and 7, B cells were stained with viability marker LIVE/DEAD Fixable Aqua Dead Cell Stain (Thermofisher) to identify dead cells, followed by extracellular staining with anti-human mAbs: anti-CD20 FITC, anti-IgD BUV395, anti-CD27 BUV737, anti-CD38 BV605 (all from BD Biosciences) and analyzed by flow cytometry (FACSCelesta™, BD Biosciences). […]

[3] = molecular target: T1, POU domain of OCT1 (POU1) (Homo sapiens, UniProt P14859); assay: Kd measurement (fluorescence emission spectra, Hill's coordinates); type: binding; settings: 298.15 K
T1 construct: 6xHis (pET28 N-terminal histidine tag) (N); made in house; host or cells: E. coli BL21
T1 sequence (P14859 280-438): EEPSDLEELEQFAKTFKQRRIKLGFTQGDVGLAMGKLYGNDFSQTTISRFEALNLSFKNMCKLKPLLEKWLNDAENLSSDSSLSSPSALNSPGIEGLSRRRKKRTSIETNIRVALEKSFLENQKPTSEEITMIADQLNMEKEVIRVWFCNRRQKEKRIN

Cc1ccc(NC(=O)C2CN(c3nc(NCCCc4ccc(F)cc4)nc(NCCC(=O)O)n3)c3ccccc3O2)cc1Cl (stereo not drawn) [compound 005, 3-((4-(2-((3-chloro-4-methylphenyl)carbamoyl)-2,3-dihydro-4H-benzo[b][1,4]oxazin-4-yl)-6-((3-(4-fluorophenyl)propyl)amino)-1,3,5-triazin-2-yl)amino)propanoic acid]
concentration showing toxicity [1]: ≥ 80 µM | BOB1/OCT1-driven transcription (relative luciferase activity) ([2]; 10 μM in the culture medium): significantly attenuated | suppression of transcriptional activation ([2]; concentration range from 0.5 to 40 μM): dose-dependent manner | effect on proliferation, CD38 and CD20 expression and plasmablast differentiation (naïve B cells): comparable dose-dependent effect | Kd ([3]; POU1 3 μM): 1 nM | ΔG (change of Gibb's energy) of binding ([3]; calculated from Kb): negative value
